Reference: patent US20110173718A1, “HERBICIDE TOLERANT PLANTS” (SYNGENTA CROP PROTECTION, INC., priority 2008, published 2011)

System: tobacco plants expressing Wheat HPPD
Assay: Glasshouse spray test, wheat HPPD transgenic tobacco
Assay type: in vivo
Details: Wheat HPPD T1
Source text: Transgenic lines of tobacco, soyabean and corn etc. can be engineered to express various heterologous HPPDs derived from, for example Avena (SEQ ID #26), Wheat (SEQ ID #27), Pseudomonas fluorescens (SEQ ID # 25) and Shewanella colwelliana (SEQ ID #28) as, for example, described in WO 02/46387.
Single copy events amongst the T1 plant lines are identified by their 3:1 segregation ratio (wrt kanamycin and or herbicide) and by quantitative RT-PCR. Seed from the thus selected T1 tobacco (var Samsun) lines are sown in 3 inch diameter pots containing 50% peat, 50% John Innes soil no 3. After growth to the 3 leaf stage, plants are sprayed, as described above, in order to test for herbicide tolerance relative to like-treated non-transgenic tobacco plants. […]
Exactly as described in example 5 of WO 02/46387 the wheat HPPD gene sequence (Embl DD064495) is cloned behind an Arabidopsis Rubisco small subunit (SSU) promoter and in front of a nos gene terminator to produce an SSU Wheat HPPD nos expression cassette' which is cloned into a binary vector and transformed into tobacco to produce a population of 30-50 transgenic events.

O=c1c(-c2c(F)ccc(F)c2Cl)c(O)c2nccnc2n1CC(F)F [Compound 2.3]
% damage observed 16 DAT (37 g/ha): 0% | % damage observed 16 DAT (111 g/ha): 0% | % damage observed 16 DAT (333 g/ha): 3% | % damage observed 16 DAT (1000 g/ha): 8%
